From PubChem BioAssay AID248 (DTP/NCI, 2004)
“And” between values parts separate entries of the source, which are not always exact repeats. Equal values may be shown once. Inconclusive results and toxic doses are left out. No stated cut-off is given here; in the data, active means T/C of 150% or more; inactive means T/C below 125%.

System: L1210 leukemia ip in BDF1 mice, survival T/C
Assay: NCI In Vivo Anticancer Drug Screen. Data for tumor model L1210 Leukemia (intraperitoneal) in B6D2F1 (BDF1) mice
Conditions: higher = longer survival
Method in brief: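 In this screen, tumor-bearing mice given compound are compared to those given vehicle, and their survival values are reported as a treated-to-control quotient.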

[1] = endpoint: mean survival time, dose: 100.0 mg/kg/injection, schedule: Q01DX001 (ip), vehicle: carboxymethylcellulose (CMC)
[2] = endpoint: mean survival time, dose: 200.0 mg/kg/injection, schedule: Q01DX001 (ip), vehicle: carboxymethylcellulose (CMC)
[3] = endpoint: mean survival time, dose: 400.0 mg/kg/injection, schedule: Q01DX001 (ip), vehicle: carboxymethylcellulose (CMC)
[4] = endpoint: mean survival time, dose: 100.0 mg/kg/injection, schedule: Q04DX003 (ip), vehicle: saline
[5] = endpoint: mean survival time, dose: 100.0 mg/kg/injection, schedule: Q01DX009 (ip), vehicle: Klucel (hydroxypropylcellulose) (HPC)
[6] = endpoint: mean survival time, dose: 100.0 mg/kg/injection, schedule: Q01DX001 (ip), vehicle: saline
[7] = endpoint: mean survival time, dose: 200.0 mg/kg/injection, schedule: Q01DX001 (ip), vehicle: saline
[8] = endpoint: mean survival time, dose: 400.0 mg/kg/injection, schedule: Q01DX001 (ip), vehicle: saline
[9] = endpoint: mean survival time, dose: 200.0 mg/kg/injection, schedule: Q01DX009 (ip), vehicle: Klucel (hydroxypropylcellulose) (HPC)
[10] = endpoint: mean survival time, dose: 200.0 mg/kg/injection, schedule: Q04DX003 (ip), vehicle: saline
[11] = endpoint: mean survival time, dose: 400.0 mg/kg/injection, schedule: Q04DX003 (ip), vehicle: saline
[12] = endpoint: mean survival time, dose: 100.0 mg/kg/injection, schedule: Q04DX002 (ip), vehicle: Klucel (hydroxypropylcellulose) (HPC)
[13] = endpoint: mean survival time, dose: 200.0 mg/kg/injection, schedule: Q04DX002 (ip), vehicle: Klucel (hydroxypropylcellulose) (HPC)
[14] = endpoint: mean survival time, dose: 400.0 mg/kg/injection, schedule: Q04DX002 (ip), vehicle: Klucel (hydroxypropylcellulose) (HPC)

Measured: T/C

CCCC(CCC)(C(=O)OCCOCCCl)c1cccc2ccccc12
inactive: endpoint: mean survival time, dose: 100.0 mg/kg/injection, schedule: Q04DX002 (ip), vehicle: saline with Tween-80 89 % of control | endpoint: mean survival time, dose: 200.0 mg/kg/injection, schedule: Q04DX002 (ip), vehicle: saline with Tween-80 99 % of control | endpoint: mean survival time, dose: 400.0 mg/kg/injection, schedule: Q04DX002 (ip), vehicle: saline with Tween-80 95 % of control

CCOC(=O)CCCN(c1ccc(OC)c(OC)c1)S(=O)(=O)c1ccc(C)cc1
inactive: [1] 97 % of control | [2] 105 % of control | [3] 94 % of control

NC1=CC(=O)C(=O)c2cccnc21
inactive: endpoint: mean survival time, dose: 75.0 mg/kg/injection, schedule: Q01DX001 (ip), vehicle: other 92 % of control

CC12CCC(C(C(=O)O)C1=O)C2(C)C (configuration not stated)
inactive: endpoint: mean survival time, dose: 100.0 mg/kg/injection, schedule: Q04DX003 (ip), vehicle: saline with Tween-80 103 % of control | endpoint: mean survival time, dose: 200.0 mg/kg/injection, schedule: Q04DX003 (ip), vehicle: saline with Tween-80 97 % of control | endpoint: mean survival time, dose: 400.0 mg/kg/injection, schedule: Q04DX003 (ip), vehicle: saline with Tween-80 100 % of control

Oc1ccc(/C=N/N2CCOCC2)c(O)c1
inactive: [1] 100 % of control and 110 % of control | endpoint: mean survival time, dose: 100.0 mg/kg/injection, schedule: Q01DX009 (ip), vehicle: carboxymethylcellulose (CMC) 97 % of control | endpoint: mean survival time, dose: 100.0 mg/kg/injection, schedule: Q04DX002 (ip), vehicle: carboxymethylcellulose (CMC) 92 % of control and 89 % of control | endpoint: mean survival time, dose: 100.0 mg/kg/injection, schedule: Q04DX003 (ip), vehicle: carboxymethylcellulose (CMC) 95 % of control and 103 % of control | [2] 98 % of control and 110 % of control | endpoint: mean survival time, dose: 200.0 mg/kg/injection, schedule: Q01DX009 (ip), vehicle: carboxymethylcellulose (CMC) 95 % of control | endpoint: mean survival time, dose: 200.0 mg/kg/injection, schedule: Q04DX002 (ip), vehicle: carboxymethylcellulose (CMC) 96 % of control and 103 % of control | endpoint: mean survival time, dose: 200.0 mg/kg/injection, schedule: Q04DX003 (ip), vehicle: carboxymethylcellulose (CMC) 95 % of control and 90 % of control | [3] 98 % of control and 110 % of control | endpoint: mean survival time, dose: 400.0 mg/kg/injection, schedule: Q01DX009 (ip), vehicle: carboxymethylcellulose (CMC) 88 % of control | endpoint: mean survival time, dose: 400.0 mg/kg/injection, schedule: Q04DX002 (ip), vehicle: carboxymethylcellulose (CMC) 95 % of control and 86 % of control | endpoint: mean survival time, dose: 400.0 mg/kg/injection, schedule: Q04DX003 (ip), vehicle: carboxymethylcellulose (CMC) 95 % of control and 87 % of control

CCN(CCC[N+](C)(C)C)C(=O)C(c1ccccc1)c1ccccc1
inactive: [4] 93 % of control

CCOC(=O)c1[nH]c(C(=O)O)c(CCC(=O)OC)c1C
inactive: endpoint: mean survival time, dose: 50.0 mg/kg/injection, schedule: Q01DX009 (ip), vehicle: Klucel (hydroxypropylcellulose) (HPC) 110 % of control | endpoint: mean survival time, dose: 100.0 mg/kg/injection, schedule: Q01DX001 (ip), vehicle: Klucel (hydroxypropylcellulose) (HPC) 93 % of control | [5] 90 % of control | endpoint: mean survival time, dose: 200.0 mg/kg/injection, schedule: Q01DX001 (ip), vehicle: Klucel (hydroxypropylcellulose) (HPC) 98 % of control | endpoint: mean survival time, dose: 300.0 mg/kg/injection, schedule: Q01DX009 (ip), vehicle: Klucel (hydroxypropylcellulose) (HPC) 100 % of control | endpoint: mean survival time, dose: 400.0 mg/kg/injection, schedule: Q01DX001 (ip), vehicle: Klucel (hydroxypropylcellulose) (HPC) 97 % of control

COc1ccc(/C=[N+](\[O-])c2ccccc2)cc1
inactive: endpoint: mean survival time, dose: 50.0 mg/kg/injection, schedule: Q01DX001 (ip), vehicle: saline 110 % of control | [6] 112 % of control | [7] 112 % of control | [8] 118 % of control

CC(C)(C)N(CCC(=O)c1ccccc1)C(=O)c1ccccc1
inactive: [5] 98 % of control | [9] 102 % of control | endpoint: mean survival time, dose: 400.0 mg/kg/injection, schedule: Q01DX009 (ip), vehicle: Klucel (hydroxypropylcellulose) (HPC) 88 % of control

COc1ccccc1NCc1cccc([N+](=O)[O-])c1
inactive: [5] 100 % of control | [4] 100 % of control | [9] 94 % of control | [10] 94 % of control | [11] 86 % of control

CC(=O)OC1C(C2CSC(=O)O2)OC2OC(C)(C)OC21 (configuration not stated)
inactive: endpoint: mean survival time, dose: 25.0 mg/kg/injection, schedule: Q04DX002 (ip), vehicle: saline 89 % of control | endpoint: mean survival time, dose: 50.0 mg/kg/injection, schedule: Q04DX002 (ip), vehicle: saline 103 % of control | endpoint: mean survival time, dose: 100.0 mg/kg/injection, schedule: Q04DX002 (ip), vehicle: saline 92 % of control

CSc1ccccc1N=Cc1c(N)ccc(C)c1C
inactive: endpoint: mean survival time, dose: 100.0 mg/kg/injection, schedule: Q01DX001 (ip), vehicle: saline with Tween-80 98 % of control | endpoint: mean survival time, dose: 200.0 mg/kg/injection, schedule: Q01DX001 (ip), vehicle: saline with Tween-80 95 % of control | endpoint: mean survival time, dose: 400.0 mg/kg/injection, schedule: Q01DX001 (ip), vehicle: saline with Tween-80 98 % of control

CCCCCOC(CN)C(Cl)(Cl)Cl (configuration not stated)
inactive: endpoint: mean survival time, dose: 25.0 mg/kg/injection, schedule: Q01DX009 (ip), vehicle: saline 93 % of control | endpoint: mean survival time, dose: 50.0 mg/kg/injection, schedule: Q01DX009 (ip), vehicle: saline 97 % of control | [4] 91 % of control

CC1(C)CN1C1=C(NC(=O)CCl)C(=O)c2ccccc2C1=O
inactive: endpoint: mean survival time, dose: 100.0 mg/kg/injection, schedule: Q04DX003 (ip), vehicle: Klucel (hydroxypropylcellulose) (HPC) 87 % of control | endpoint: mean survival time, dose: 200.0 mg/kg/injection, schedule: Q04DX003 (ip), vehicle: Klucel (hydroxypropylcellulose) (HPC) 94 % of control | endpoint: mean survival time, dose: 400.0 mg/kg/injection, schedule: Q04DX003 (ip), vehicle: Klucel (hydroxypropylcellulose) (HPC) 91 % of control

Cc1onc(-c2ccccc2Cl)c1-c1nc2ccccc2c(=O)o1
inactive: [12] 93 % of control | [13] 93 % of control | [14] 96 % of control

CC(C)N(Cl)S(C)(=O)=O
inactive: [4] 89 % of control

CCOC(=O)C1CCCNC1=O (configuration not stated)
inactive: [4] 105 % of control | [10] 116 % of control | [11] 108 % of control

O=C(N/N=C/c1c(Cl)cccc1Cl)C1CCCO1 (configuration not stated)
inactive: endpoint: mean survival time, dose: 6.25 mg/kg/injection, schedule: Q01DX009 (ip), vehicle: Klucel (hydroxypropylcellulose) (HPC) 96 % of control | endpoint: mean survival time, dose: 12.5 mg/kg/injection, schedule: Q01DX009 (ip), vehicle: Klucel (hydroxypropylcellulose) (HPC) 96 % of control | endpoint: mean survival time, dose: 25.0 mg/kg/injection, schedule: Q01DX009 (ip), vehicle: Klucel (hydroxypropylcellulose) (HPC) 95 % of control and 91 % of control

CCOC(=O)CCCS
inactive: endpoint: mean survival time, dose: 75.0 mg/kg/injection, schedule: Q01DX001 (ip), vehicle: carboxymethylcellulose (CMC) 93 % of control | endpoint: mean survival time, dose: 150.0 mg/kg/injection, schedule: Q01DX001 (ip), vehicle: carboxymethylcellulose (CMC) 93 % of control

CNC(=O)NC(=O)C(C)(C)Oc1ccc(Cl)cc1
inactive: [4] 97 % of control | [10] 94 % of control

Cc1nc(N)sc1CCCl
inactive: endpoint: mean survival time, dose: 36.0 mg/kg/injection, schedule: Q01DX015 (ip), vehicle: carboxymethylcellulose (CMC) 100 % of control | endpoint: mean survival time, dose: 54.0 mg/kg/injection, schedule: Q01DX015 (ip), vehicle: carboxymethylcellulose (CMC) 94 % of control

CN(C)C1C(=O)C(C(N)=O)=C(O)C2(O)C(=O)C3=C(O)c4c(O)cccc4C(C)(O)C3CC12 (configuration not stated)
inactive: [6] 94 % of control | [7] 96 % of control | [8] 100 % of control | endpoint: median survival time, dose: 20.0 mg/kg/injection, schedule: Q04DX003 (ip), vehicle: water 103 % of control and 105 % of control | endpoint: median survival time, dose: 40.0 mg/kg/injection, schedule: Q04DX003 (ip), vehicle: water 97 % of control and 100 % of control | endpoint: median survival time, dose: 80.0 mg/kg/injection, schedule: Q04DX003 (ip), vehicle: water 97 % of control and 100 % of control | endpoint: median survival time, dose: 160.0 mg/kg/injection, schedule: Q04DX003 (ip), vehicle: water 105 % of control and 111 % of control

NC(=O)N/N=C/C(=O)O
inactive: [12] 96 % of control | [13] 104 % of control | [14] 104 % of control

Cc1ccc(S(=O)(=O)Nc2cccc3cc(Cl)ccc23)cc1
inactive: endpoint: mean survival time, dose: 100.0 mg/kg/injection, schedule: Q04DX003 (ip), vehicle: acetone 94 % of control | endpoint: mean survival time, dose: 200.0 mg/kg/injection, schedule: Q04DX003 (ip), vehicle: acetone 105 % of control | endpoint: mean survival time, dose: 400.0 mg/kg/injection, schedule: Q04DX003 (ip), vehicle: acetone 91 % of control
